In US20050042688A1, “Cellular analysis” (priority 2003, published 2005):

Test system: T cells
Settings: whole blood collected in EDTA versus heparin as anticoagulant, 37° C., activated with PDBu/ionomycin
Protocol: In this example, whole blood was collected from a donor in collection tubes containing heparin (curve 1) or EDTA (curve 2), respectively, as the anticoagulants. Blood samples were then incubated at 37° C. and activated with phorbol ester and a calcium ionophore (PDBu/I, phorbol-12,13-dibutyrate/ionomycin).

O=C(O)CN(CCN(CC(=O)O)CC(=O)O)CC(=O)O [EDTA]
responsiveness of T-cells (level of inducible actin polymerization by PDBu/I): dramatic decrease in the responsiveness of T-cells
